According to article PMC10059999, “Assessment of Lipophilicity Parameters of Antimicrobial and Immunosuppressive Compounds” (Molecules, 2023):
Values after ≈ are worked out from the molar mass of the structure shown. Read-outs that look alike come from different tables or passages of the source.

What was measured:
[1] = set-up: method as in ChemSpider / selleckchem.com; conditions: ref ChemSpider / selleckchem.com, cited from earlier work; for Solubility in Water / logS: aqueous solubility
[2] = RP-TLC determination of chromatographic lipophilicity parameter RMW (Soczewiński–Wachtmeister extrapolation to pure water); type: physicochemical; conditions: for RMW values, range: range over all plates (RP2F254, RP18F254, RP18WF254) and all mobile phases
Experimental: Thin-layer chromatography aluminum plates (20 cm × 20 cm, 0.25 mm) precoated with silica gel RP18F254, and glass plates coated with silica gel RP18WF254 (20 cm × 10 cm) and silica gel RP2F254 (10 cm × 10 cm) were obtained from Merck (Darmstadt, Germany).
The chromatographic analysis was carried out according to the procedure described earlier on RP-TLC plates (RP2F254, RP18F254, RP18WF254) as a stationary phase using three different mobile phases. Five microliters of standard solutions of analytes were spotted onto the chromatographic plates. The chromatographic chamber 20 cm × 10 cm (Camag, Switzerland) was saturated with the mobile phase vapors for 20 min. The mobile phases were prepared by mixing appropriate organic modifiers (ethanol, propan-2-ol, acetonitrile) and water in different volume compositions. The content of the organic modifier in the mobile phase used was changed in the step of 5% (v/v) in the range of 30–90% v/v. Thus, the mobile phases used consisted of a suitable organic solvent and water mixed in the following volume compositions: 30:70; 35:65; 40:60; 45:55; 50:50; […]; 60:40; 65:35; 70:30; 75:25; 80:20; 85:15 and 90:10. Chromatograms were developed at room temperature (21 ± 1 °C) to the solvent distance of 7 cm. Next, the chromatograms were dried for 24 h at (21 ± 1 °C) in a fume cupboard. The detection of the studied compounds was carried out under a UV lamp at 254 nm (Camag, Muttenz, Switzerland). The values of Rf (retardation factor) are the average values of three independent measurements in each case.

[3] = set-up: method as in DrugBank; conditions: n-octanol-water, ref DrugBank, cited from earlier work
[4] = RP2F254 plates, acetonitrile-water mobile phase
[5] = RP2F254 plates, ethanol–water mobile phase
[6] = RP2F254 plates, propan-2-ol-water mobile phase
[7] = RP18F254 plates, acetonitrile-water mobile phase
[8] = RP18F254 plates, ethanol–water mobile phase
[9] = RP18F254 plates, propan-2-ol-water mobile phase
[10] = RP18WF254 plates, acetonitrile-water mobile phase
[11] = RP18WF254 plates, ethanol–water mobile phase
[12] = RP18WF254 plates, propan-2-ol-water mobile phase

Row | RMW [2, 4] | RMW [2, 5] | RMW [2, 6] | RMW values, range on RP2F254 ([2]; RP2F254 plates, range over the three mobile phases) | RMW [2, 7] | RMW [2, 8] | RMW [2, 9] | RMW [2, 10] | RMW [2, 11] | RMW [2, 12] | RMW values, range [2] | SMILES | Solubility in Water [1] [mg/mL] | logS [1] | pKa (Strongest Acidic) [1] | pKa (Strongest Basic) [1] | logPexp (Experimental Value) [3] | logPexp (Experimental Value) ([3]; listed as ceftazidime)
1 | −0.0357 | −0.6643 | −0.3642 | −0.0357 to −0.6643 | 0.1462 | −2.9545 | 0.4691 | 0.4121 | 0.4152 | 0.9153 | −2.9545 to 0.9153 | CC(C)(O/N=C(\C(=O)N[C@@H]1C(=O)N2C(C(=O)[O-])=C(C[n+]3ccccc3)CS[C@H]12)c1csc(N)n1)C(=O)O [Ceftazidime, ceftazidime] | 0.00573 (≈ 10.5 µM) | −5.0 | 2.42 | 4.02 | −1.60 | −1.6
2 | 0.6615 | 0.9184 | 0.7390 | – | 2.3174 | 2.1359 | 1.7719 | 1.8351 | 1.9694 | 1.6940 | – | Nc1nc(-n2cc(C(=O)O)c(=O)c3cc(F)c(N4CC(O)C4)c(Cl)c32)c(F)cc1F [Delafloxacin, delafloxacin] | 0.0699 (≈ 159 µM) | −3.8 | 5.62 | −1.3 | – | –
3 | 2.8557 | 2.9460 | 2.2145 | – | 2.9462 | 3.5637 | 2.5865 | 2.7737 | 2.8227 | 2.5687 | 2.2145–3.5637 | CO[C@H]1C[C@@H]2CC[C@@H](C)[C@@](O)(O2)C(=O)C(=O)N2CCCC[C@H]2C(=O)O[C@H]([C@H](C)C[C@@H]2CC[C@@H](OCCO)[C@H](OC)C2)CC(=O)[C@H](C)/C=C(\C)[C@@H](O)[C@@H](OC)C(=O)[C@H](C)C[C@H](C)/C=C/C=C/C=C/1C [Everolimus, everolimus] | 0.00163 (≈ 1.7 µM) | −5.8 | 9.96 | −2.7 | – | –
4 | 2.7480 | 3.3623 | 2.1522 | – | 3.1252 | 3.1105 | 2.4741 | 3.2300 | 2.7377 | 2.7821 | 2.1522–3.3623 | CO[C@H]1C[C@@H]2CC[C@@H](C)[C@@](O)(O2)C(=O)C(=O)N2CCCC[C@H]2C(=O)O[C@H]([C@H](C)C[C@@H]2CC[C@H](n3cnnn3)[C@H](OC)C2)CC(=O)[C@H](C)/C=C(\C)[C@@H](O)[C@@H](OC)C(=O)[C@H](C)C[C@H](C)/C=C/C=C/C=C/1C [Zotarolimus, zotarolimus] | – | – | – | – | – | –

Row | SMILES | RMW [2, 4] | RMW [2, 5] | RMW [2, 6] | RMW values, range on RP2F254 ([2]; RP2F254 plates, range over the three mobile phases) | RMW [2, 7] | RMW [2, 8] | RMW [2, 9] | RMW [2, 10] | RMW [2, 11] | RMW [2, 12] | RMW values, range [2] | Solubility in Water [1] [mg/mL] | logS [1] | pKa (Strongest Acidic) [1] | pKa (Strongest Basic) [1] | logPexp (Experimental Value) [3] | logPexp (Experimental Value) ([3]; listed as ceftazidime)
5 | CC(=O)NC[C@H]1CN(c2ccc(N3CCSCC3)c(F)c2)C(=O)O1 [Sutezolid, sutezolid] | 1.4312 | 1.4334 | 1.1590 | – | 2.2114 | 1.8680 | 1.5937 | 2.0329 | 1.9661 | 1.4784 | – | 0.237 (≈ 671 µM) | −3.2 | 14.85 | −0.14 | – | –
